# Experimental data: patent US5624956A, “Urea derivatives useful as platelet aggregation inhibitors” (The Monsanto Company, priority 1995, dated 1997)
# Test system: platelet aggregation (dog platelet-rich plasma)
# Assay: In-vitro platelet aggregation in PRP (ADP-induced, dog)
# Format: cell-based
# Details: Canis lupus familiaris, ADP 50 um final concentration, at 10^-5 M, read-out: Dog PRP % Inh
# Description: IN-VITRO PLATELET AGGREGATION IN PRP
# Healthy male or female dogs were fasted for 8 hours prior to drawing blood; then 30 ml whole blood was collected using a butterfly needle and 30 cc plastic syringe with 3 ml of 0.129M buffered sodium citrate (3.8%). The syringe was rotated carefully as blood was drawn to mix the citrate. Platelet-rich plasma (PRP) was prepared by centrifugation at 975×g for 3.17 minutes at room temperature allowing the centrifuge to coast to a stop without braking. The PRP was removed from the blood with a plastic pipette and placed in a plastic capped, 50 mL Corning conical sterile centrifuge tube which was held at room temperature. Platelet poor plasma (PPP) was prepared by centrifuging the remaining blood at 2000×g for 15 minutes at room temperature allowing the centrifuge to coast to a stop without braking. The PRP was adjusted with PPP to a count of 2-3×10^8 platelets per mL. 400 uL of the PRP preparation and 50 uL of the compounds solution to be tested or saline were preincubated for […] at 37° C. in a […].). 50 uL of adenosine 5' diphosphate (ADP) (50 um final concentration) was added to the cuvettes and the aggregation was monitored for 1 minute. All compounds are tested in duplicate. Results are calculated as follows: Percent of control=[(maximal OD minus initial OD of compound) divided by (maximal OD minus initial OD of control saline)]×100. The % inhibition=100-(percent of control).
# The compounds tested and their median inhibitory concentrations (IC50) are recorded in Table I. IC50 's (dosage at which 50% of platelet aggregation is inhibited) were calculated by linear regression of the dose response curve.
row,SMILES,inhibition at 10 µM [%]
1,"CC(C)[C@H](NC(=O)Nc1ccc(C(=N)N)cc1)C(=O)NC(CC(=O)O)c1cccnc1 (single isomer, unassigned) [10 (isomer 1)]",9
2,"CN=C(NCCC(=O)NCCC(=O)O)Nc1ccc(C(=N)N)cc1 [Example 6, β-[[3-[[[4-(aminoiminomethyl)phenyl]amino]N-methylcarbonylimide]aminopropanoyl]amino]propanoic acid]",5

# Same assay, conditions: Canis lupus familiaris, ADP 50 um final concentration, preincubation at 37° C., aggregation monitored for 1 minute
row,SMILES,IC50 [µM]
1,"C[C@H](CNC(=O)Nc1ccc(C(=N)N)cc1)C(=O)NC(CC(=O)O)c1ccc2c(c1)OCO2 (single isomer, unassigned) [14 (isomer 1)]",2
2,N=C(N)c1ccc(NC(=O)NCCC(=O)NC(CC(=O)O)c2cccnc2)cc1 (stereo not shown) [Example 2],0.33
3,N=C(N)c1ccc(NC(=O)NCC(=O)NC(CC(=O)O)c2cccnc2)cc1 (stereo not shown) [Example 4],0.26
4,"N=C(N)c1ccc(NC(=S)NCCC(=O)NCCC(=O)O)cc1 [Example 8, β-[[3-[[[4(aminoiminomethyl)phenyl]amino]-thiocarbonyl]aminopropanoyl]amino]propanoic acid]",4.9
5,"N=C(N)c1ccc(NC(=O)NC(CC(=O)NCCC(=O)O)c2cccnc2)cc1 (stereo not drawn) [Example 12, β-[[3-[[[[4-(aminoiminomethyl)phenyl]amino]-carbonyl]amino](3-pyridine)propanoyl]amino]-propanoic acid]",6
